# Data: patent US20120015907A1, “Furopyridine compounds and uses thereof” (NOVARTIS AG, priority 2010, published 2012)
# Biological target: T1, HCV polymerase (Hepatitis C virus genotype 1b, UniProt Q9WMX2)
# T1 construct: (His)6 (C)
# Assay: biochemical
# Conditions: polymerase assay of Biological Example 1; read-out: NS5B polymerase IC50
row,Compound,IC50
1,"CNC(=O)c1c(-c2ccc(C)cc2)oc2nc(N(CCCC3(C(=O)O)CC3)S(C)(=O)=O)c(C3CC3)cc12 [Example 29.8, 1-(3-(N-(5-cyclopropyl-3-(methylcarbamoyl)-2-p-tolylfuro[2,3-b]pyridin-6-yl)mcthylsulfonamido)propyl) cyclopropanecarboxylic acid]",2 nM
2,"CNC(=O)c1c(-c2ccc(C)cc2)oc2nc(N(CCCc3nn[nH]n3)S(C)(=O)=O)c(C3CC3)cc12 [Example 29.92, 6-(N-(3-(2H-tetrazol-5-yl)propyl)methylsulfonamido)-5-cyclopropyl-N-methyl-2-p-tolylfuro[2,3-b]pyridine-3-carboxamide]",2 nM
3,"CCc1ccc(-c2oc3nc(N(CCCCC4(C(=O)O)CCOCC4)S(C)(=O)=O)c(C4CC4)cc3c2C(=O)NC)cc1 [Example 29.94, 4-(4-(N-(5-cyclopropyl-2-(4-ethylphenyl)-3-(methylcarbamoyl)furo[2,3-b]pyridin-6-yl)methylsulfonamido)butyl) tetrahydro-2H-pyran-4-carboxylic acid]",3 nM
4,"CNC(=O)c1c(-c2ccc(C)cc2)oc2nc(N(CCCCC3(C(=O)O)CCOCC3)S(C)(=O)=O)c(C3CC3)cc12 [Example 29.95, 4-(4-(N-(5-cyclopropyl-3-(methylcarbamoyl)-2-p-tolylfuro[2,3-b]pyridin-6-yl)methylsulfonamido)butyl) tetrahydro-2H-pyran-4-carboxylic acid]",3 nM
5,"CNC(=O)c1c(-c2ccc(C)cc2)oc2nc(N(CCCC3(C(=O)O)COC3)S(C)(=O)=O)c(C3CC3)cc12 [Example 29.96, 3-(3-(N-(5-cyclopropyl-3-(methylcarbamoyl)-2-p-tolylfuro[2,3-b]pyridin-6-yl)methylsulfonamido)propyl) oxetane-3-carboxylic acid]",5 nM
6,"C=CCCN(c1nc2oc(-c3ccc(C)cc3)c(C(=O)NC)c2cc1C1CC1)S(C)(=O)=O [Example 29.98, 6-(N-(but-3-enyl)methylsulfonamido)-5-cyclopropyl-N-methyl-2-p-tolylfuro[2,3-b]pyridine-3-carboxamide]",17 nM
7,"CNC(=O)c1c(-c2ccc(C)cc2)oc2nc(N(CCCCCCCC(=O)O)S(C)(=O)=O)c(C3CC3)cc12 [Example 29.991, 8-(N-(5-cyclopropyl-3-(methylcarbamoyl)-2-p-tolylfuro[2,3-b]pyridin-6-yl)methylsulfonamido) octanoic acid]",4 nM
8,"CNC(=O)c1c(-c2ccc(C)cc2)oc2nc(N(CC3CCC(=O)O3)S(C)(=O)=O)c(C3CC3)cc12 (stereo not drawn) [Example 29.994, 5-cyclopropyl-N-methyl-6-(N-((5-oxotetrahydrofuran-2-yl)methyl)methylsulfonamido)-2-p-tolylfuro[2,3-b]pyridine-3-carboxamide]",6 nM
9,"CNC(=O)c1c(-c2ccc(C)cc2)oc2nc(N(CCCCCCC(=O)O)S(C)(=O)=O)c(C3CC3)cc12 [Example 29.996, 7-(N-(5-cyclopropyl-3-(methylcarbamoyl)-2-p-tolylfuro[2,3-b]pyridin-6-yl)methylsulfonamido) heptanoic acid]",7 nM
10,"CNC(=O)c1c(-c2ccc(C)cc2)oc2nc(N(CCCCBr)S(C)(=O)=O)c(C3CC3)cc12 [Example 29.997, 6-(N-(4-bromobutyl)methylsulfonamido)-5-cyclopropyl-N-methyl-2-p-tolylfuro[2,3-b]pyridine-3-carboxamide]",2 nM
11,"CNC(=O)c1c(-c2ccc(C)cc2)oc2nc(N(CCCCCBr)S(C)(=O)=O)c(C3CC3)cc12 [Example 29.998, 6-(N-(5-bromopentyl)methylsulfonamido)-5-cyclopropyl-N-methyl-2-p-tolylfuro[2,3-b]pyridine-3-carboxamide]",3 nM
12,"CNC(=O)c1c(-c2ccc(C)cc2)oc2nc(N(CCCBr)S(C)(=O)=O)c(C3CC3)cc12 [Example 29.999, 6-(N-(3-bromopropyl)methylsulfonamido)-5-cyclopropyl-N-methyl-2-p-tolylfuro[2,3-b]pyridine-3-carboxamide]",4 nM
13,"CCc1ccc(-c2oc3nc(N(CCCC(C)(OC)C(=O)O)S(C)(=O)=O)c(C4CC4)cc3c2C(=O)NC)cc1 (stereo not drawn) [Example 29.9991, 5-(N-(5-cyclopropyl-2-(4-ethylphenyl)-3-(methylcarbamoyl)furo[2,3-b]pyridin-6-yl)methylsulfonamido)-2-methoxy-2-methylpentanoic acid]",3 nM
14,"CNC(=O)c1c(-c2ccc(C)cc2)oc2nc(N(CCCC(C)(OC)C(=O)O)S(C)(=O)=O)c(C3CC3)cc12 (stereo not drawn) [Example 29.9992, 5-(N-(5-cyclopropyl-3-(methylcarbamoyl)-2-p-tolylfuro[2,3-b]pyridin-6-yl)methylsulfonamido)-2-methoxy-2-methylpentanoic acid]",4 nM
15,"CCc1ccc(-c2oc3nc(N(CCCC4(C(=O)O)CC4)S(C)(=O)=O)c(C4CC4)cc3c2C(=O)NC)cc1 [Example 29.9993, 1-(3-(N-(5-cyclopropyl-2-(4-ethylphenyl)-3-(methylcarbamoyl)furo[2,3-b]pyridin-6-yl)methylsulfonamido)propyl) cyclopropanecarboxylic acid]",2 nM
16,"CCc1ccc(-c2oc3nc(N(CCCC(C)C(=O)O)S(C)(=O)=O)c(C4CC4)cc3c2C(=O)NC)cc1 (stereo not drawn) [Example 29.9995, 5-(N-(5-cyclopropyl-2-(4-ethylphenyl)-3-(methylcarbamoyl)furo[2,3-b]pyridin-6-yl)methylsulfonamido)-2-methylpentanoic acid]",2 nM
17,"CNC(=O)c1c(-c2ccc(C)cc2)oc2nc(N(CCCC3(C(=O)O)CCN(C(=O)OC(C)(C)C)CC3)S(C)(=O)=O)c(C3CC3)cc12 [Example 29.9996, 1-(tert-butoxycarbonyl)-4-(3-(N-(5-cyclopropyl-3-(methylcarbamoyl)-2-p-tolylfuro[2,3-b]pyridin-6-yl)methylsulfonamido)propyl) piperidine-4-carboxylic acid]",117 nM

# The next lines start with the values.
row,IC50,Compound
1,2 nM,"CCc1ccc(-c2oc3nc(N(CCCCCC(=O)O)S(C)(=O)=O)c(C4CC4)cc3c2C(=O)NC)cc1 [Example 29.9, 6-(N-(5-cyclopropyl-2-(4-ethylphenyl)-3-(methylcarbamoyl)furo[2,3-b]pyridin-6-yl)methylsulfonamido) hexanoic acid]"
2,2 nM,"CCc1ccc(-c2oc3nc(N(CCCC4(C(=O)O)CCC4)S(C)(=O)=O)c(C4CC4)cc3c2C(=O)NC)cc1 [Example 29.91, 1-(3-(N-(5-cyclopropyl-2-(4-ethylphenyl)-3-(methylcarbamoyl)furo[2,3-b]pyridin-6-yl)methylsulfonamido)propyl) cyclobutanecarboxylic acid]"
3,3 nM,"CNC(=O)c1c(-c2ccc(C)cc2)oc2nc(N(CCCCc3nn[nH]n3)S(C)(=O)=O)c(C3CC3)cc12 [Example 29.93, 6-(N-(4-(2H-tetrazol-5-yl)butyl)methylsulfonamido)-5-cyclopropyl-N-methyl-2-p-tolylfuro[2,3-b]pyridine-3-carboxamide]"
4,3 nM,"C=CCN(c1nc2oc(-c3ccc(C)cc3)c(C(=O)NC)c2cc1C1CC1)S(C)(=O)=O [Example 29.97, 6-(N-allylmethylsulfonamido)-5-cyclopropyl-N-methyl-2-p-tolylfuro[2,3-b]pyridine-3-carboxamide]"
5,14 nM,"C=CCCCN(c1nc2oc(-c3ccc(C)cc3)c(C(=O)NC)c2cc1C1CC1)S(C)(=O)=O [Example 29.99, 5-cyclopropyl-N-methyl-6-(N-(pent-4-enyl)methylsulfonamido)-2-p-tolylfuro[2,3-b]pyridine-3-carboxamide]"
6,7 nM,"CNC(=O)c1c(-c2ccc(C)cc2)oc2nc(N(CCCCCCCCC(=O)O)S(C)(=O)=O)c(C3CC3)cc12 [Example 29.992, 9-(N-(5-cyclopropyl-3-(methylcarbamoyl)-2-p-tolylfuro[2,3-b]pyridin-6-yl)methylsulfonamido) nonanoic acid]"
7,2 nM,"CNC(=O)c1c(-c2ccc(C)cc2)oc2nc(N(CCCCCCCCCC(=O)O)S(C)(=O)=O)c(C3CC3)cc12 [Example 29.993, 10-(N-(5-cyclopropyl-3-(methylcarbamoyl)-2-p-tolylfuro[2,3-b]pyridin-6-yl)methylsulfonamido) decanoic acid]"
8,13 nM,"CNC(=O)c1c(-c2ccc(C)cc2)oc2nc(N(CC(O)CCC(=O)O)S(C)(=O)=O)c(C3CC3)cc12 (stereo not drawn) [Example 29.995, 5-(N-(5-cyclopropyl-3-(methylcarbamoyl)-2-p-tolylfuro[2,3-b]pyridin-6-yl)methylsulfonamido)-4-hydroxypentanoic acid]"
9,2 nM,"CNC(=O)c1c(-c2ccc(C)cc2)oc2nc(N(CCCC(C)C(=O)O)S(C)(=O)=O)c(C3CC3)cc12 (stereo not drawn) [Example 29.9994, 5-(N-(5-cyclopropyl-3-(methylcarbamoyl)-2-p-tolylfuro[2,3-b]pyridin-6-yl)methylsulfonamido)-2-methylpentanoic acid]"
10,15 nM,"C=C(CCCN(c1nc2oc(-c3ccc(C)cc3)c(C(=O)NC)c2cc1C1CC1)S(C)(=O)=O)C(=O)OC [Example 29.9997, methyl 5-(N-(5-cyclopropyl-3-(methylcarbamoyl)-2-p-tolylfuro[2,3-b]pyridin-6-yl)methylsulfonamido)-2-methylenepentanoate]"
11,5 nM,"CNC(=O)c1c(-c2ccc(C)cc2)oc2nc(N(CCCC(CC#N)C(=O)OC)S(C)(=O)=O)c(C3CC3)cc12 (stereo not drawn) [Example 29.9998, methyl 2-(cyanomethyl)-5-(N-(5-cyclopropyl-3-(metfiylcarbamoyl)-2-p-tolylfuro[2,3-b]pyridin-6-yl)methylsulfonamido) pentanoate]"
12,2 nM,"CNC(=O)c1c(-c2ccc(C)cc2)oc2nc(N(CCCC(CC#N)C(=O)O)S(C)(=O)=O)c(C3CC3)cc12 (stereo not drawn) [Example 29.9999, 2-(cyanomethyl)-5-(N-(5-cyclopropyl-3-(methylcarbamoyl)-2-p-tolylfuro[2,3-b]pyridin-6-yl)methylsulfonamido) pentanoic acid]"
13,129 nM,"CNC(=O)c1c(-c2ccc(C)cc2)oc2nc(N(CCCC3(C(=O)O)CCNCC3)S(C)(=O)=O)c(C3CC3)cc12 [Example 29.99991, 4-(3-(N-(5-cyclopropyl-3-(methylcarbamoyl)-2-p-tolylfuro[2,3-b]pyridin-6-yl)methylsulfonamido)propyl) piperidine-4-carboxylic acid]"
